Results published in PubChem BioAssay (NCI).
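Exposure lasted 48 hours, with cells grown in 96-well plates and compounds tested at five concentrations. The concentration for 50% growth inhibition is given as GI50. The concentration for full growth arrest is given as TGI.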

Assays:
Test in all cases: NCI anticancer screen, dose series, 48 h
[1] = tested on: OVCAR-4 ovarian
[2] = tested on: OVCAR-8 ovarian
[3] = tested on: HS 578T breast
[4] = tested on: NCI-H460 lung
[5] = tested on: LOX IMVI melanoma
[6] = tested on: 786-0 renal
[7] = tested on: U251 CNS
[8] = tested on: SF-295 CNS
[9] = tested on: TK-10 renal
[10] = tested on: SK-MEL-2 melanoma
[11] = tested on: HOP-62 NSCLC
[12] = tested on: SK-MEL-28 melanoma
[13] = tested on: HCT-116 colon
[14] = tested on: ACHN renal
[15] = tested on: SNB-75 CNS
[16] = tested on: SN12C renal
[17] = tested on: KM12 colon
[18] = tested on: A498 renal
[19] = tested on: IGROV1 ovarian
[20] = tested on: SR leukemia
[21] = tested on: NCI-H226 lung
[22] = tested on: SF-268 CNS
[23] = tested on: CCRF-CEM leukemia
[24] = tested on: BT-549 breast
[25] = tested on: MALME-3M melanoma
[26] = tested on: SK-OV-3 ovarian
[27] = tested on: NCI-H522 lung
[28] = tested on: PC-3 prostate
[29] = tested on: HL-60(TB) leukemia
[30] = tested on: SK-MEL-5 melanoma
[31] = tested on: MDA-MB-435
[32] = tested on: OVCAR-5 ovarian
[33] = tested on: SF-539 CNS
[34] = tested on: HOP-92 NSCLC
[35] = tested on: M14 melanoma
[36] = tested on: EKVX NSCLC
[37] = tested on: NCI-H23 lung
[38] = tested on: T-47D breast
[39] = tested on: HT29 colon
[40] = tested on: SNB-19 CNS
[41] = tested on: DU-145 prostate
[42] = tested on: UO-31 renal
[43] = tested on: COLO 205 colon
[44] = tested on: UACC-62 melanoma
[45] = tested on: SW-620 colon
[46] = tested on: MCF7 breast
[47] = tested on: RPMI-8226 leukemia
[48] = tested on: A549 NSCLC
[49] = tested on: CAKI-1 renal
[50] = tested on: HCT-15 colon
[51] = tested on: UACC-257 melanoma
[52] = tested on: HCC-2998 colon
[53] = tested on: NCI/ADR-RES ovarian
[54] = tested on: MDA-MB-231 breast
[55] = tested on: OVCAR-3 ovarian
[56] = tested on: RXF 393 renal
[57] = tested on: MOLT-4 leukemia
[58] = tested on: K-562 leukemia

For O=C1C(c2ccccc2)=C(N2CCc3ccccc32)OC1(Cl)Cl, the GI50 [1] was 3.38 µM, the TGI [1] was 13.6 µM and the GI50 [2] was 3.58 µM. It also gave a TGI [2] greater than 100 µM, a GI50 [3] of 2.99 µM and a TGI [3] greater than 100 µM. For the same compound, the GI50 [4] was 3.96 µM, the TGI [4] was 20.2 µM and the GI50 [5] was 1.65 µM. It also gave a TGI [5] of 3.63 µM, a GI50 [6] of 1.82 µM and a TGI [6] of 4.21 µM. For the same compound, the GI50 [7] was 7.34 µM, the TGI [7] was 21.6 µM and the GI50 [8] was 14.1 µM. For the same compound, the TGI [8] was 32.4 µM, the GI50 [9] was 2 µM and the TGI [9] was 4.91 µM. It also gave a GI50 [10] of 3.57 µM, a TGI [10] of 18.6 µM and a GI50 [11] of 12.2 µM. For the same compound, the TGI [11] was 35.8 µM, the GI50 [12] was 2.27 µM and the TGI [12] was 4.99 µM. The GI50 [13] was 1.58 µM, the TGI [13] was 8.04 µM and the GI50 [14] was 2.27 µM. It also gave a TGI [14] of 7.14 µM, a GI50 [15] of 2.52 µM and a TGI [15] of 17.2 µM. For the same compound, the GI50 [16] was 2.7 µM, the TGI [16] was 8.58 µM and the GI50 [17] was 5.13 µM. For the same compound, the TGI [17] was 18.8 µM, the GI50 [18] was 3.94 µM and the TGI [18] was 14.6 µM. The GI50 [19] was 4.44 µM, the TGI [19] was 29 µM and the GI50 [20] was 1.67 µM. It also gave a TGI [20] of 5.92 µM, a GI50 [21] of 1.8 µM and a TGI [21] of 4.27 µM. It also gave a GI50 [22] of 3.92 µM, a TGI [22] of 29.4 µM and a GI50 [23] of 1.47 µM. For the same compound, the TGI [23] was 5.56 µM, the GI50 [24] was 2.15 µM and the TGI [24] was 6.26 µM. It also gave a GI50 [25] of 1.89 µM, a TGI [25] of 4.38 µM and a GI50 [26] of 13.4 µM. The TGI [26] was 30.9 µM, the GI50 [27] was 1.7 µM and the TGI [27] was 4.17 µM. It also gave a GI50 [28] of 4.03 µM, a TGI [28] of 54.6 µM and a GI50 [29] of 2.21 µM. For the same compound, the TGI [29] was 5.62 µM, the GI50 [30] was 4.35 µM and the TGI [30] was 16.9 µM. The GI50 [31] was 3.26 µM, the TGI [31] was 11.4 µM and the GI50 [32] was 3.57 µM. For the same compound, the TGI [32] was 10.4 µM, the GI50 [33] was 2.19 µM and the TGI [33] was 5.17 µM. For the same compound, the GI50 [34] was 1.81 µM, the TGI [34] was 5.21 µM and the GI50 [35] was 1.77 µM. The TGI [35] was 3.73 µM, the GI50 [36] was 2.7 µM and the TGI [36] was 8.94 µM. For the same compound, the GI50 [37] was 1.96 µM, the TGI [37] was 4.67 µM and the GI50 [38] was 2.19 µM. For the same compound, the TGI [38] was 9.86 µM, the GI50 [39] was 2.25 µM and the TGI [39] was 5.37 µM. It also gave a GI50 [40] of 5.27 µM, a TGI [40] of 22.9 µM and a GI50 [41] of 1.97 µM. It also gave a TGI [41] of 3.9 µM, a GI50 [42] of 1.44 µM and a TGI [42] of 3.07 µM. The GI50 [43] was 1.85 µM, the TGI [43] was 4.36 µM and the GI50 [44] was 2.73 µM. It also gave a TGI [44] of 10.8 µM, a GI50 [45] of 1.57 µM and a TGI [45] of 4.21 µM. For the same compound, the GI50 [46] was 2.29 µM, the TGI [46] was 9.59 µM and the GI50 [47] was 2.36 µM. The TGI [47] was 6.09 µM, the GI50 [48] was 4.71 µM and the TGI [48] was 32.7 µM. It also gave a GI50 [49] of 1.47 µM, a TGI [49] of 3.47 µM and a GI50 [50] of 1.74 µM. The TGI [50] was 4.56 µM, the GI50 [51] was 2.53 µM and the TGI [51] was 8.28 µM. It also gave a GI50 [52] of 2.91 µM, a TGI [52] of 8.88 µM and a GI50 [53] of 3.21 µM. It also gave a TGI [53] greater than 100 µM, a GI50 [54] of 2.89 µM and a TGI [54] of 9.09 µM. It also gave a GI50 [55] of 1.91 µM, a TGI [55] of 3.89 µM and a GI50 [56] of 1.44 µM. For the same compound, the TGI [56] was 2.86 µM, the GI50 [57] was 1.86 µM and the TGI [57] was 5.13 µM.
Work on CCCCCc1ccc(S(=O)(=O)Nc2cc(-c3csc(NC(=O)CN4CCN(CCO)CC4)n3)ccc2OC)cc1 yielded a GI50 [1] of 2.05 µM, a TGI [1] of 5.12 µM and a GI50 [2] of 1.82 µM. It also gave a TGI [2] of 3.52 µM, a GI50 [4] of 1.84 µM and a TGI [4] of 3.46 µM. It also gave a GI50 [5] of 1.73 µM, a TGI [5] of 3.24 µM and a GI50 [6] of 1.85 µM. For the same compound, the TGI [6] was 3.39 µM, the GI50 [7] was 1.73 µM and the TGI [7] was 3.41 µM. For the same compound, the GI50 [8] was 1.89 µM, the TGI [8] was 3.74 µM and the GI50 [9] was 1.94 µM. It also gave a TGI [9] of 3.96 µM, a GI50 [10] of 1.78 µM and a TGI [10] of 3.36 µM. For the same compound, the GI50 [11] was 1.66 µM, the TGI [11] was 3.18 µM and the GI50 [12] was 1.77 µM. It also gave a TGI [12] of 3.25 µM, a GI50 [13] of 1.72 µM and a TGI [13] of 3.24 µM. For the same compound, the GI50 [14] was 1.81 µM, the TGI [14] was 3.28 µM and the GI50 [15] was 1.39 µM. For the same compound, the TGI [15] was 2.75 µM, the GI50 [16] was 1.94 µM and the TGI [16] was 3.69 µM. For the same compound, the GI50 [58] was 2.69 µM, the TGI [58] was greater than 100 µM and the GI50 [17] was 1.92 µM. For the same compound, the TGI [17] was 3.7 µM, the GI50 [18] was 1.58 µM and the TGI [18] was 2.95 µM. It also gave a GI50 [19] of 1.92 µM, a TGI [19] of 4.01 µM and a GI50 [20] of 1.76 µM. It also gave a TGI [20] of 5.23 µM, a GI50 [21] of 1.9 µM and a TGI [21] of 3.88 µM. It also gave a GI50 [22] of 1.7 µM, a TGI [22] of 3.4 µM and a GI50 [23] of 2.54 µM. It also gave a TGI [23] of 7.83 µM, a GI50 [24] of 1.55 µM and a TGI [24] of 3.1 µM. For the same compound, the GI50 [25] was 1.64 µM, the TGI [25] was 3.15 µM and the GI50 [26] was 1.81 µM. It also gave a TGI [26] of 3.3 µM, a GI50 [27] of 1.86 µM and a TGI [27] of 3.58 µM. The GI50 [28] was 2.68 µM, the TGI [28] was 7.88 µM and the GI50 [30] was 1.77 µM. For the same compound, the TGI [30] was 3.2 µM, the GI50 [31] was 1.7 µM and the TGI [31] was 3.21 µM. For the same compound, the GI50 [32] was 2.19 µM, the TGI [32] was 5.44 µM and the GI50 [33] was 1.54 µM. It also gave a TGI [33] of 2.95 µM, a GI50 [34] of 1.5 µM and a TGI [34] of 3 µM. It also gave a GI50 [35] of 1.71 µM, a TGI [35] of 3.24 µM and a GI50 [36] of 1.69 µM. It also gave a TGI [36] of 3.59 µM, a GI50 [37] of 1.93 µM and a TGI [37] of 4.38 µM. It also gave a GI50 [38] of 1.79 µM, a TGI [38] of 3.78 µM and a GI50 [39] of 1.89 µM. For the same compound, the TGI [39] was 3.75 µM, the GI50 [40] was 2.05 µM and the TGI [40] was 4.59 µM. The GI50 [41] was 1.89 µM, the TGI [41] was 3.6 µM and the GI50 [42] was 1.52 µM. It also gave a TGI [42] of 3.03 µM, a GI50 [43] of 1.61 µM and a TGI [43] of 3.11 µM. It also gave a GI50 [44] of 1.81 µM, a TGI [44] of 3.54 µM and a GI50 [45] of 1.75 µM. For the same compound, the TGI [45] was 3.3 µM, the GI50 [46] was 1.62 µM and the TGI [46] was 3.2 µM. For the same compound, the GI50 [47] was 1.78 µM, the TGI [47] was 4.28 µM and the GI50 [48] was 1.89 µM. For the same compound, the TGI [48] was 4.18 µM, the GI50 [49] was 1.62 µM and the TGI [49] was 3.32 µM. The GI50 [50] was 1.86 µM, the TGI [50] was 3.65 µM and the GI50 [51] was 1.66 µM. The TGI [51] was 3.22 µM, the GI50 [52] was 1.93 µM and the TGI [52] was 3.8 µM. The GI50 [53] was 3.49 µM, the TGI [53] was 14.1 µM and the GI50 [54] was 1.94 µM. For the same compound, the TGI [54] was 3.83 µM, the GI50 [56] was 1.38 µM and the TGI [56] was 3.01 µM. For the same compound, the GI50 [57] was 3.17 µM and the TGI [57] was 10.6 µM.
